Columns and labels:
P388 (ADR) = assay: MTT cytotoxicity assay, P388 (ADR); format: cell-based, murine; conditions: P388 (ADR), 72 hours; read-out: IC50 Value
Method in brief: (§1)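 72 h continuous exposure to serial dilutions (0.05-100 μM); MTT 4 h; DMSO; A570. IC50 from % control curve, mean of n=3.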

P388 (WT) = assay: MTT cytotoxicity assay, P388 (WT); format: cell-based, murine; conditions: P388 (WT), 72 hours; read-out: IC50 Value
Method in brief: as §1

collagenase = collagenase production by chondrocytes (ELISA); format: cell-based, bovine; conditions: for production of metalloproteases, such as collagenase: summary statement
Method in brief: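 Bovine articular chondrocytes, orthovanadate 100 μM pretreatment 2 h, then IL 1 (10 ng/ml) or PMA ([…]). Collagenase by ELISA of medium after 24 h; PLA2 as 3H-AA released over 10 min in 1 mg/ml BSA medium; PGE2 by RIA of supernatant after 6 h in Ham's F12.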

[1] = system: proliferating chondrocytes; assay: viability / proliferation of proliferating chondrocytes (low cell density); format: cell-based; conditions: for proliferation of cells, such as chondrocytes: summary statement
Protocol: In order to compare the effect of orthovanadate on non-proliferating and proliferating chondrocytes, chondrocytes were plated at both high cell density (2×10^6 to 4×10^6 cells/per well on a six well plate) (nonproliferating) and at a lower cell density (5×10^5 to 1×10^6 cells/per well on a six well plate) (proliferating) and then maintained for 48 hours. The cells were then incubated in media (HAMS F12) containing 0-50 μM Orthovanadate for an additional 48 hours. The cells were harvested and the number of viable cells determined.

Lewis lung = assay: MTT cytotoxicity assay, Lewis lung; format: cell-based, murine; conditions: 72 hours
Protocol: (§2) The relative cytotoxicity of various compounds on tumor cell lines was investigated as follows. Cytotoxicity was measured by the MTT microculture tetrazolium colorimetric assay for all cell lines. The relative cytotoxicity of Na3 VO4 and VOSO4 was investigated using the following tumor cell lines: P388(WT) murine leukemia, P388 (ADR) murine leukemia, Lewis murine lung, MCF7 (WT) human breast, […] human lung, K562 human erythroleukemia, A431 human epidermal, LS180 human colon and SK-OV-3 human ovarian. The relative cytotoxicity of doxorubicin, Na3 VO4 and VOSO4 was investigated using the following tumor cell lines: P388(WT) murine leukemia, P388 (ADR) murine leukemia, MCF7(WT) human breast and MCF7 (ADR) human breast. The relative cytotoxicity of BMOV, BEOV and naglivan was investigated using the following tumor cell lines: P388(WT) murine leukemia, P388 (ADR) murine leukemia, Lewis murine lung, H460 human lung, K562 human erythroleukemia, and SK-OV-3 human ovarian.
(§3) The cells were plated (number of cells/well was different from cell line to cell depending on the dividing rate) in a 96-well microculture plate 24 hours prior to the delivery of the vanadium compounds. Serial concentrations of solutions of the test compounds (0.05-100 μM) were delivered to the corresponding wells. A blank column (without cells) and a control column (with cells without vanadium) were left. The cells were incubated for 72 hours continuously. An MTT solution was added to each well after this incubation period and the cells were incubated for 4 more hours for the completion of the dyeing process. The medium was removed find DMSO was added to each well. The absorbance of each well was read with a Titertek Multiskan (310C) spectrophotometer at 570 nm. The percentage of the absorbance of each vanadium concentration relative to the control calculated and the value of the 50% growth inhibition concentration (IC50) was obtained from the % control versus concentration plot. Each assay was repeated three times and the reported IC50 values were the mean of these three runs.

K562 = assay: MTT cytotoxicity assay, K562; format: cell-based, human; conditions: K562, 72 hours
Protocol: as §2
as §3, with “Serial concentrations of solutions of the test compounds (0.05-100 μM) were delivered to the corresponding wells.” left out

H460 = assay: MTT cytotoxicity assay, H460; format: cell-based, human; conditions: H460, 72 hours
Protocol: as §2, §3

SK-OV-3 = assay: MTT cytotoxicity assay, SK-OV-3; format: cell-based, human; conditions: SK-OV-3, 72 hours
Protocol: as §2, §3

KB8, KB8-5 and KB85-11 = assay: killing of drug resistant ovarian cancer cell lines KB8, KB8-5 and KB85-11; format: cell-based; conditions: 0-50 μM, 48 hours
Protocol: The effect of orthovanadate on three ovarian cancer cell lines, KB8, KB8-5 and KB85-11, which have increasing drug resistance, respectively, relative to the parent cell line, KB3-1 was compared. These drug resistant cell lines are not killed by several classes of chemotherapeutic agents such as colchicine, vinblastine and doxorubicin. In the study, cell lines of increasing drug resistance (KB8, KB8-5 and KB-85-11) and the parent cell line, KB3-1, were incubated in media (DMEM) containing 0-50 μM orthovanadate for 48 hours. The cells were harvested and the number of viable cells determined.

| Compound | IC50 (P388 (ADR)) | IC50 (P388 (WT)) | production of metalloproteases, such as collagenase (collagenase) | proliferation of cells, such as chondrocytes [1] | IC50 (Lewis lung) | IC50 (K562) | IC50 (H460) | IC50 (SK-OV-3) | inhibition of collagenase production (collagenase; 100 μM, IL 1 or PMA stimulated) | toxicity to cells plated at low cell density ([1]; 0-50 μM, 48 hours) | killing of drug resistant cell lines (KB8, KB8-5 and KB85-11) |
| --- | --- | --- | --- | --- | --- | --- | --- | --- | --- | --- | --- |
| Cc1occc(=O)c1[O-].Cc1occc(=O)c1[O-].[O]=[V+2] [BMOV, bis(methylmaltolato) oxovanadium (IV)] | 61.2 µM | 31.1 µM | inhibit | inhibit | 142 µM | > 1000 µM | 6.4 µM | 2.6 µM |  |  |  |
| [Na+].[Na+].[Na+].[O]=[V]([O-])([O-])[O-] [orthovanadate, sodium orthovanadate] | 14.8 µM | 5.5 µM | inhibit | inhibit | 42.3 µM | 100 µM | 1.5 µM | 2 µM | completely inhibited | toxic | equally effective |

From patent US5871779A, “Treatment of arthropathies with vanadate compounds or analogues thereof” (Mount Sinai Hospital Corporation, priority 1996, dated 1999)
